Source: patent US7009050B2, “5-Substituted pyrimidine derivatives of conformationally locked nucleoside analogues” (The United States of America as represented by the …, priority 2000, dated 2006)
≈ marks a conversion by molar mass, not a printed value. Read-outs that look alike come from different tables or passages of the source.

Columns and labels:
[1] = system: TK − VZV 07/1 strain; assay: VZV plaque reduction, TK- VZV 07/1 strain; format: cell-based, Varicella zoster virus; conditions: read-out: Antiviral activity (Plaque reduction) EC50, TK − VZV 07/1 strain
Experimental: (§1) The virus plaque reduction assay proceeds generally as follows. […] The drug concentrations utilized are usually 200 down to 0.06 μg/mL. The virus to be used is diluted in MEM containing 10% FBS to a desired concentration which will give 20–30 plaques/well. The media are then aspirated from the wells, and 0.2 mL of virus is added to each well in duplicate with 0.2 mL of media being added to drug toxicity wells. The plates are then incubated for 1 hr with shaking every 15 min. After the incubation period, an equal amount of 1% agarose is added to an equal volume of each drug dilution. […] The drug agarose mixture is applied to each well in 2 mL volume, and the plates are incubated for 3 days, after which the cells are stained with a […] of neutral red. At the end of the 4–6 h incubation period, the stain is aspirated, and plaques are counted using a stereomicroscope at 10× magnification.

[2] = system: HSV-2; assay: virus plaque reduction assay, HSV-2 in HFF
[3] = system: TK + VZV YS strain; assay: VZV plaque reduction, TK+ VZV YS strain; format: cell-based, Varicella zoster virus; conditions: read-out: Antiviral activity (Plaque reduction) EC50, TK + VZV YS strain
[4] = system: Cowpox; conditions: HFF cells; plaque reduction
[5] = system: TK + VZV OKA strain; assay: VZV plaque reduction, TK+ VZV OKA strain; format: cell-based, Varicella zoster virus; conditions: read-out: Antiviral activity (Plaque reduction) EC50, TK + VZV OKA strain
Experimental: as §1

[6] = system: Vaccinia; conditions: HFF cells; plaque reduction
[7] = system: HSV-2; assay: cytopathogenic effect (CPE) inhibition assay, HSV-2 in HFF; conditions: HFF cells
[8] = system: HSV-1; assay: virus plaque reduction assay, HSV-1 in HFF
[9] = system: Cowpox; conditions: HFF cells; CPE inhibition
[10] = system: TK − VZV YS/R strain; assay: VZV plaque reduction, TK- VZV YS/R strain; format: cell-based, Varicella zoster virus; conditions: read-out: Antiviral activity (Plaque reduction) EC50, TK − VZV YS/R strain
Experimental: as §1

[11] = system: human foreskin fibroblast (HFF) cells
[12] = system: HSV-1; assay: cytopathogenic effect (CPE) inhibition assay, HSV-1 in HFF; conditions: for HSV-1 (HFF) CPE inhib. EC50: HFF cells, CPE inhibition
[13] = system: Vaccinia; conditions: HFF cells; CPE inhibition
[14] = cytotoxicity (cell morphology MCC, cell growth CC50), Table 3; conditions: for Cytotoxicity, Cell Morphology (MCC): minimum cytotoxic concentration causing microscopically detectable alteration of cell morphology; for CC50: read-out: Cytotoxicity CC50, cell growth
[15] = system: herpes viruses; assay: antiherpes activity of methanocarbathymine conformers (test not specified); format: cell-based
[16] = plaque reduction assay, more potent than acyclovir

Question: With `O=c1[nH]c(=O)n(C2CC(O)C3(CO)CC23)cc1Br` (centres unmarked) [(N)-MCdBrU (3)] as the molecule, how does the EC50 [1] read?
Answer: 107000 nM

Question: What about the “HSV-2 (HFF) plaque red'n EC50” value ([2]; HFF cells, plaque reduction) of the same molecule?
Answer: 0.12 µg/mL

Question: What about the “SI (CC50/EC50), HSV-2 plaque red'n” value ([2]; HFF cells, plaque reduction) of the same molecule?
Answer: 833

Question: What about the EC50 [3] of the same molecule?
Answer: 30 nM

Question: And the “Cowpox (HFF) Plaque red'n EC50” value [4]?
Answer: 3.4 µg/mL

Question: What about the “SI (CC50/EC50), Cowpox Plaque red'n” value [4] of the same molecule?
Answer: 29.4

Question: What about the EC50 [5] of the same molecule?
Answer: 890 nM

Question: What about the “SI (CC50/EC50), Vaccinia Plaque red'n” value [6] of the same molecule?
Answer: 38.5

Question: And the “Vaccinia (HFF) Plaque red'n EC50” value [6]?
Answer: 2.6 µg/mL

Question: And the “HSV-2 (HFF) CPE inhib. EC50” value [7]?
Answer: 0.70 µg/mL

Question: What about the “SI (CC50/EC50), HSV-2 CPE inhib.” value [7] of the same molecule?
Answer: >142

Question: What about the “HSV-1 (HFF) plaque red'n EC50” value ([8]; HFF cells, plaque reduction) of the same molecule?
Answer: 0.03 µg/mL

Question: And the “SI (CC50/EC50), HSV-1 plaque red'n” value ([8]; HFF cells, plaque reduction)?
Answer: 3333

Question: What about the “Cowpox (HFF) CPE inhib. EC50” value [9] of the same molecule?
Answer: 11.5 µg/mL

Question: What about the “SI (CC50/EC50), Cowpox CPE inhib.” value [9] of the same molecule?
Answer: 8.7

Question: And the EC50 [10]?
Answer: 37000 nM

Question: And the “HSV-1 (HFF) CPE inhib. CC50” value [11]?
Answer: >100 µg/mL

Question: And the “HSV-1 (HFF) plaque red'n CC50” value [11]?
Answer: >100 µg/mL

Question: And the “HSV-2 (HFF) CPE inhib. CC50” value [11]?
Answer: >100 µg/mL

Question: What about the “HSV-2 (HFF) plaque red'n CC50” value [11] of the same molecule?
Answer: >100 µg/mL

Question: What about the “Cowpox (HFF) CPE inhib. CC50” value ([11]; HFF cells, column of Cowpox CPE inhibition) of the same molecule?
Answer: >100 µg/mL

Question: And the “Cowpox (HFF) Plaque red'n CC50” value ([11]; HFF cells, column of Cowpox plaque reduction)?
Answer: >100 µg/mL

Question: What about the “Vaccinia (HFF) CPE inhib. CC50” value ([11]; HFF cells, column of Vaccinia CPE inhibition) of the same molecule?
Answer: >100 µg/mL

Question: And the “Vaccinia (HFF) Plaque red'n CC50” value ([11]; HFF cells, column of Vaccinia plaque reduction)?
Answer: >100 µg/mL

Question: What about the “HSV-1 (HFF) CPE inhib. EC50” value [12] of the same molecule?
Answer: 0.39 µg/mL

Question: And the “SI (CC50/EC50), Vaccinia CPE inhib.” value [13]?
Answer: >156

Question: What about the “Vaccinia (HFF) CPE inhib. EC50” value [13] of the same molecule?
Answer: 0.64 µg/mL

Question: With `O=c1[nH]c(=O)n([C@H]2C[C@H](O)[C@]3(CO)C[C@H]23)cc1/C=C/Br` [(N)-MCBVDU (5)] as the molecule, how does the EC50 [1] read?
Answer: > 5000 nM

Question: What about the EC50 [3] of the same molecule?
Answer: 7 nM

Question: And the EC50 [5]?
Answer: 5 nM

Question: What about the “HSV-2 (HFF) CPE inhib. EC50” value [7] of the same molecule?
Answer: >100 µg/mL

Question: And the “SI (CC50/EC50), HSV-2 CPE inhib.” value [7]?
Answer: 0

Question: What about the EC50 [10] of the same molecule?
Answer: > 5000 nM

Question: What about the “HSV-1 (HFF) CPE inhib. CC50” value [11] of the same molecule?
Answer: >100 µg/mL

Question: And the “HSV-2 (HFF) CPE inhib. CC50” value [11]?
Answer: >100 µg/mL

Question: And the “HSV-1 (HFF) CPE inhib. EC50” value [12]?
Answer: 2.2 µg/mL

Question: With `O=c1[nH]c(=O)n([C@H]2C[C@H](O)[C@@H](CO)O2)cc1/C=C/Br` [BVDU, reference compound] as the molecule, how does the EC50 [1] read?
Answer: > 150000 nM

Question: What about the EC50 [3] of the same molecule?
Answer: 8 nM

Question: And the “Cytotoxicity, Cell Morphology (MCC)” value [14]?
Answer: >150 μM

Question: What about the CC50 [14] of the same molecule?
Answer: > 400000 nM

Question: What about the EC50 [5] of the same molecule?
Answer: 5 nM

Question: And the EC50 [10]?
Answer: > 150000 nM

Question: With `Cc1cn([C@@]23C[C@H](O)[C@@H](CO)[C@@H]2C3)c(=O)[nH]c1=O` as the molecule, how does the “antiherpes activity (in words)” value [15] read?
Answer: inactive

Question: For `O=c1[nH]c(=O)n([C@H]2C[C@H](O)[C@]3(CO)C[C@H]23)cc1I` [(N)-MCdIU (4)], which EC50 [1] is on record?
Answer: > 5000 nM

Question: And the “Cytotoxicity, Cell Morphology (MCC)” value [14]?
Answer: >5 μM

Question: And the CC50 [14]?
Answer: > 200000 nM

Question: What about the EC50 [5] of the same molecule?
Answer: 160 nM

Question: What about the “HSV-2 (HFF) CPE inhib. EC50” value [7] of the same molecule?
Answer: 3.3 µg/mL

Question: And the “SI (CC50/EC50), HSV-2 CPE inhib.” value [7]?
Answer: 30.3

Question: What about the EC50 [10] of the same molecule?
Answer: 3000 nM

Question: And the “HSV-1 (HFF) CPE inhib. CC50” value ([11]; HFF cells, column of HSV-1 CPE inhibition)?
Answer: >100 µg/mL

Question: And the “HSV-2 (HFF) CPE inhib. CC50” value ([11]; HFF cells, column of HSV-2 CPE inhibition)?
Answer: >100 µg/mL

Question: And the “HSV-1 (HFF) CPE inhib. EC50” value [12]?
Answer: >100 µg/mL

Question: For `Nc1nc2c(ncn2COCCO)c(=O)[nH]1` [ACV, acyclovir, reference compound], which EC50 ([12]; Human alphaherpesvirus 1, HFF, read-out: HSV-1 (HFF) CPE inhib. EC50) is on record?
Answer: 0.5 µg/mL (≈ 2.22 µM)

Question: Which results are given for `Cc1cn([C@H]2C[C@H](O)[C@]3(CO)C[C@H]23)c(=O)[nH]c1=O` [(North)-methanocarbathymine, reference compound]?
Answer: potency relative to acyclovir against HSV-2 [2, 16]: 30 times; potency relative to acyclovir against HSV-1 [8, 16]: 30 times
